Test results published in patent publication US9266877B2, “Apoptosis-inducing agents for the treatment of cancer and immune and autoimmune diseases” (priority 2011, dated 2016).

Each compound was assayed on FL5.12 cells transfected with Bcl-XL (assay: FL5.12 Cellular Assay (cell viability, CellTiter-Glo)). Conditions: Mus musculus, FL5.12, 24 h, read-out: FL5.12 Bcl-xL, IL3, EC 50 (nM).
Assay type: cell-based, mouse
Description: For assaying the compound activity, the cells were exchanged into an IL-3-depleted deprivation media, which was identical to the growth media except for the absence of FBS and WEHI-3B conditional media, for 2 days. Then the cells were exchanged to 3% FBS assay media (RPMI with 2 mM glutamine, 1% 100 mM sodium pyruvate, 2% 1 M HEPES, 4 μL/L of β-mercaptoethanol, 1% penicillin-streptomycin, 3% FBS). Compounds in series dilutions were added, and the cells were cultured for 24 hours. […] Cell viability was assayed using the CellTiter-Glo assay (Promega Corp., Madison, Wis.) according to the manufacturer instructions. Individual determinations were the result of duplicate values.

Q: For `Cc1c(OC2CCCC(C)(C)C2)cccc1-c1ccc(N2CCc3cccc(C(=O)Nc4nc5ccccc5s4)c3C2)nc1C(=O)O` (centres unmarked) [Example 121, 6-[8-(1,3-benzothiazol-2-ylcarbamoyl)-3,4-dihydroisoquinolin-2(1H)-yl]-3-{3-[(3,3-dimethylcyclohexyl)oxy]-2-methylphenyl}pyridine-2-carboxylic acid], which EC50 is on record?
A: The EC50 was 87 nM.

Q: Which EC50 does the source give for `Cc1[nH]c(C#N)c(CC2CCCCC2)c1-c1ccc(N2CCc3cccc(C(=O)Nc4nc5ccccc5s4)c3C2)nc1C(=O)NS(C)(=O)=O` [Example 171, N-(1,3-benzothiazol-2-yl)-2-{5-[5-cyano-4-(cyclohexylmethyl)-2-methyl-1H-pyrrol-3-yl]-6-[(methylsulfonyl)carbamoyl]pyridin-2-yl}-1,2,3,4-tetrahydroisoquinoline-8-carboxamide] here?
A: Its EC50 is 97 nM.

Same assay, conditions: mouse FL5.12 cells transfected with Bcl-XL, IL-3-depleted, 3% FBS assay media, 24 hours; read-out: FL5.12 Bcl-xL, IL3, EC 50

Q: Which EC50 does the source give for `O=C(Nc1nc2ccccc2s1)c1cccc2c1CN(c1ccc(-c3cnn(Cc4cccnc4)c3)c(C(=O)O)n1)CC2` [Example 3, 6-[8-(1,3-benzothiazol-2-ylcarbamoyl)-3,4-dihydroisoquinolin-2(1H)-yl]-3-[1-(pyridin-3-ylmethyl)-1H-pyrazol-4-yl]pyridine-2-carboxylic acid] here?
A: The EC50 was greater than 1000 nM.

Q: How did the EC50 turn out when `COc1ccc2nc(NC(=O)c3cccc4c3CN(c3ccc(-c5cnn(Cc6ccccc6)c5)c(C(=O)O)n3)CC4)sc2c1` [Example 11, 3-(1-benzyl-1H-pyrazol-4-yl)-6-{8-[(6-methoxy-1,3-benzothiazol-2-yl)carbamoyl]-3,4-dihydroisoquinolin-2(1H)-yl}pyridine-2-carboxylic acid] was run?
A: The EC50 was greater than 1000 nM.

Q: `COc1cccc(Cn2cc(-c3ccc(N4CCc5cccc(C(=O)Nc6nc7ccccc7s6)c5C4)nc3C(=O)O)cn2)c1` [Example 14, 6-[8-(1,3-benzothiazol-2-ylcarbamoyl)-3,4-dihydroisoquinolin-2(1H)-yl]-3-[1-(3-methoxybenzyl)-1H-pyrazol-4-yl]pyridine-2-carboxylic acid] was tested. Which EC50 did it give?
A: Its EC50 is greater than 1000 nM.

Q: For `O=C(Nc1nc2ccccc2s1)c1cccc2c1CN(c1ccc(-c3cnn(Cc4ccc(Cl)cc4)c3)c(C(=O)O)n1)CC2` [Example 15, 6-[8-(1,3-benzothiazol-2-ylcarbamoyl)-3,4-dihydroisoquinolin-2(1H)-yl]-3-[1-(4-chlorobenzyl)-1H-pyrazol-4-yl]pyridine-2-carboxylic acid], which EC50 is on record?
A: The EC50 was greater than 1000 nM.

Q: With `O=C(Nc1nc2ccccc2s1)c1cccc2c1CN(c1ccc(-c3cnn(Cc4cccc(O)c4)c3)c(C(=O)O)n1)CC2` [Example 17, 6-[8-(1,3-benzothiazol-2-ylcarbamoyl)-3,4-dihydroisoquinolin-2(1H)-yl]-3-[1-(3-hydroxybenzyl)-1H-pyrazol-4-yl]pyridine-2-carboxylic acid] as the compound, how does the EC50 read?
A: The EC50 was greater than 1000 nM.

Q: `O=C(Nc1nc2cccc(Cl)c2s1)c1cccc2c1CN(c1ccc(-c3cnn(Cc4ccccc4)c3)c(C(=O)O)n1)CC2` [Example 21, 3-(1-benzyl-1H-pyrazol-4-yl)-6-{8-[(7-chloro-1,3-benzothiazol-2-yl)carbamoyl]-3,4-dihydroisoquinolin-2(1H)-yl}pyridine-2-carboxylic acid] was tested. Which EC50 did it give?
A: The EC50 was greater than 1000 nM.

Q: For `N#Cc1cccc(Cn2cc(-c3ccc(N4CCc5cccc(C(=O)Nc6nc7ccccc7s6)c5C4)nc3C(=O)O)cn2)c1` [Example 24, 6-[8-(1,3-benzothiazol-2-ylcarbamoyl)-3,4-dihydroisoquinolin-2(1H)-yl]-3-[1-(3-cyanobenzyl)-1H-pyrazol-4-yl]pyridine-2-carboxylic acid], which EC50 is on record?
A: Its EC50 is greater than 1000 nM.

Q: Which EC50 does the source give for `O=C(Nc1nc2ccccc2s1)c1cccc2c1CN(c1ccc(-c3cnn(Cc4ccccn4)c3)c(C(=O)O)n1)CC2` [Example 26, 6-[8-(1,3-benzothiazol-2-ylcarbamoyl)-3,4-dihydroisoquinolin-2(1H)-yl]-3-[1-(pyridin-2-ylmethyl)-1H-pyrazol-4-yl]pyridine-2-carboxylic acid] here?
A: The EC50 was greater than 1000 nM.

Q: How did the EC50 turn out when `O=C(Nc1nc2ccccc2s1)c1cccc2c1CN(c1ccc(-c3cnn(CCc4ccccc4)c3)c(C(=O)O)n1)CC2` [Example 38, 6-[8-(1,3-benzothiazol-2-ylcarbamoyl)-3,4-dihydroisoquinolin-2(1H)-yl]-3-[1-(2-phenylethyl)-1H-pyrazol-4-yl]pyridine-2-carboxylic acid] was run?
A: Its EC50 is greater than 1000 nM.

Q: With `CC(C)(C)Cn1cc(-c2ccc(N3CCc4cccc(C(=O)Nc5nc6ccccc6s5)c4C3)nc2C(=O)O)cn1` [Example 59, 6-[8-(1,3-benzothiazol-2-ylcarbamoyl)-3,4-dihydroisoquinolin-2(1H)-yl]-3-[1-(2,2-dimethylpropyl)-1H-pyrazol-4-yl]pyridine-2-carboxylic acid] as the compound, how does the EC50 read?
A: The EC50 was greater than 1000 nM.

Q: With `Cc1c(-c2ccc(N3CCc4cccc(C(=O)Nc5nc6ccccc6s5)c4C3)nc2C(=O)O)cnn1C[C@@H]1CC[C@@H]2C[C@H]1C2(C)C` [Example 85, 6-[8-(1,3-benzothiazol-2-ylcarbamoyl)-3,4-dihydroisoquinolin-2(1H)-yl]-3-(1-{[(1R,2R,5R)-6,6-dimethylbicyclo[3.1.1]hept-2-yl]methyl}-5-methyl-1H-pyrazol-4-yl)pyridine-2-carboxylic acid] as the compound, how does the EC50 read?
A: Its EC50 is 12 nM.

Q: `COCCCC1(Cn2ncc(-c3ccc(N4CCc5cccc(C(=O)Nc6nc7ccccc7s6)c5C4)nc3C(=O)O)c2C)CCCCC1` [Example 97, 6-[8-(1,3-benzothiazol-2-ylcarbamoyl)-3,4-dihydroisoquinolin-2(1H)-yl]-3-(1-{[1-(3-methoxypropyl)cyclohexyl]methyl}-5-methyl-1H-pyrazol-4-yl)pyridine-2-carboxylic acid] was tested. Which EC50 did it give?
A: Its EC50 is less than 1 nM.

Q: `O=C(Nc1nc2ccccc2s1)c1cccc2c1CN(c1ccc(-c3cccc(Oc4ccccc4)c3)c(C(=O)O)n1)CC2` [Example 103, 6-[8-(1,3-benzothiazol-2-ylcarbamoyl)-3,4-dihydroisoquinolin-2(1H)-yl]-3-(3-phenoxyphenyl)pyridine-2-carboxylic acid] was tested. Which EC50 did it give?
A: Its EC50 is greater than 1000 nM.

These compounds were tested against Bcl-xL (Homo sapiens (Human), UniProt Q07817) (assay: Time Resolved-Fluorescence Resonance Energy Transfer (TR-FRET) binding assay, competition with F-Bak). Conditions: not given.
Sequence of Bcl-xL (Q07817 whole entry): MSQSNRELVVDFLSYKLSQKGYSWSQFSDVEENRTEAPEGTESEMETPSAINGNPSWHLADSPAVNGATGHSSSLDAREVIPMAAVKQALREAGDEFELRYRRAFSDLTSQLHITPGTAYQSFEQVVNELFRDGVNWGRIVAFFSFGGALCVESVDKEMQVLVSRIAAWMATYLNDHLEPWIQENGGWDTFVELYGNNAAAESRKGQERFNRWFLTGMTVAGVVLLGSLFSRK

Q: `Cc1c(-c2ccc(N3CCc4cccc(C(=O)Nc5nc6ccccc6s5)c4C3)nc2C(=O)O)cccc1N(C)C1CCCC(C)(C)C1` (centres unmarked) [Example 159, 6-[8-(1,3-benzothiazol-2-ylcarbamoyl)-3,4-dihydroisoquinolin-2(1H)-yl]-3-{3-[(3,3-dimethylcyclohexyl)(methyl)amino]-2-methylphenyl}pyridine-2-carboxylic acid] was tested. Which Ki did it give?
A: The Ki was 0.2 nM.

Same assay, conditions: competition with F-Bak probe, GST-Bcl-xL; read-out: TR-FRET binding Bcl-xL Ki

Q: For `Cc1[nH]c(C#N)c(CC2CCCCC2)c1-c1ccc(N2CCc3cccc(C(=O)Nc4nc5ccccc5s4)c3C2)nc1C(=O)NS(C)(=O)=O` [Example 171, N-(1,3-benzothiazol-2-yl)-2-{5-[5-cyano-4-(cyclohexylmethyl)-2-methyl-1H-pyrrol-3-yl]-6-[(methylsulfonyl)carbamoyl]pyridin-2-yl}-1,2,3,4-tetrahydroisoquinoline-8-carboxamide], which Ki is on record?
A: The Ki was less than 0.1 nM.
